The subject of one series is κ-opioid receptors. To be noted: in vivo; cited from earlier work.
Series [1] relates to Dark Agouti rats. The arrangement: species or system rat (Dark Agouti). To be noted: rat, in vivo, sc.
In series [2] the test system is Sprague-Dawley rats. In kind it is in vivo, rat (Sprague-Dawley).
Series [3] deals with Dark Agouti rats. Type of series: in vivo, rat (Dark Agouti). Conditions: any time.
Series [4] concerns surgical patients. Conditions: i.v. alone; cited from earlier work.
The test system of a further series is humans. Conditions: naive human adult, every four hours, cited from earlier work.
The subject of series [5] is Dark Agouti rats. To be noted: rat, in vivo, sc.
In series [6] the test system is Sprague-Dawley rats. To be noted: cited from earlier work; for ED50 / Time to maximum antinociception: i.c.v.
The conditions of series [7]: cited from earlier work.
The subject of series [8] is Sprague-Dawley rats. In kind it is in vivo, rat (Sprague-Dawley). The source holds these as a separate data set.
In series [9] the test system is Sprague-Dawley rats.
For series [10], the system named is fetal dorsal root ganglion sensory neurones. Conditions: cited from earlier work.
Series [11] deals with δ-opioid receptors relative to μ-opioid receptors. To be noted: cited from earlier work.
Series [12] has as its system δ- relative to κ-opioid receptors. To be noted: cited from earlier work.
In the next series the target is κ2a-2 opioid receptor. Conditions: κ2a-2 subtype; cited from earlier work.
The test system of the next series is rats. Conditions: systemic oxycodone; cited from earlier work.
Series [13] deals with Dark Agouti rats. Conditions: s.c. oxycodone; cited from earlier work.
Series [14] concerns surgical patients. In kind it is in vivo, human. Conditions: i.v. morphine 2.0 mg plus oxycodone 2.0 mg; oxycodone 10 mg alone.

“Also recorded” adds a separate entry of the source. Read-outs that look alike come from different tables or passages of the source. Bounds are passed on as bounds.

On to `CCC12CCN(CC3(O)CC3)C(Cc3ccc(O)cc31)C2(C)C` (centres unmarked) [bremazocine], for which the Antinociception profile entry in the series on κ-opioid receptors was “antinociception characterised by a rapid onset of action and a single antinociceptive phase”.
`CCC12CCN(CC3CC3)C(C(=O)c3ccc(O)cc31)C2C` (centres unmarked) [ethylketazocine]: the Antinociception profile entry with κ-opioid receptors was “antinociception characterised by a rapid onset of action and a single antinociceptive phase”.
Regarding `CN1CC[C@]23c4c5ccc(O)c4O[C@H]2[C@@H](O)C=C[C@H]3[C@H]1C5` [morphine], the “Time of onset of antinociception (%MPE≥30%)” value with Dark Agouti rats [1] was found to be 22 min. The “Degree of antinociception (%MPE)” value in the series on Sprague-Dawley rats [2] (i.c.v. morphine 15 nmol alone, any time in 3 h) is given as at most 20%. The “Antinociception (% MPE)” value in the series on Dark Agouti rats [3] (i.p. morphine 621 nmol alone) is at most 50 % MPE. Further, in the series on surgical patients [4], the “Dose used for intubation” value is “approximately 10 mg”. Also, in the series with humans (intravenous), the “Lower threshold initial dose producing analgesia” value is 4 to 5 mg. Also, the “Lower threshold initial dose producing analgesia” value in the series with humans (oral) is 30 mg. Further, in the series with Dark Agouti rats [5], the “Failure of eye reflex test” value is “approximately 40 % of the time” and the “Failure of righting reflex test” value is recorded as “approximately 33 % of the time”. In addition, the ED50 in the series on Sprague-Dawley rats [6] is 34 nmol.
As for `C=CCN1CC[C@]23c4c5ccc(O)c4O[C@H]2/C(=N/N=C2\CC[C@@]4(O)[C@H]6Cc7ccc(O)c8c7[C@@]4(CCN6CC=C)[C@H]2O8)CC[C@@]3(O)[C@H]1C5` [naloxonazine], in series [7] (naloxonazine), the “Effect on DAMGO antinociception” value is on record as “antagonise the antinociceptive effects”, the “Effect on DPDPE antinociception” value is reported as “did not reduce the antinociception” and the “Effect on morphine antinociception” value is recorded as “antagonise the antinociceptive effects”. Also, in the series with Sprague-Dawley rats [8] (rat, in vivo), the “Duration of action of oxycodone after antagonist” value turned out to be 60 min, the “Effect on morphine antinociception” value was “completely attenuated; also recorded: attenuated the antinociceptive effects”, the “Effect on oxycodone antinociception” value was “minor effect on the observed antinocicepfion; also recorded: magnitude of antinociception did not appear to be significantly reduced during the first 15 min; also recorded: almost no effect; also recorded: did not attenuate” and the “Reduction of %MPE values versus untreated rats” value is 5-10%. Further, in the series on Sprague-Dawley rats [9] (rat, in vivo), the Excitatory behaviour result is “minor excitatory behaviour (shaking and teeth chattering)”; the “Sensitivity to external stimuli versus untreated rats” value was “more sensitive to external stimuli (touch and sound)”.
Regarding `C=CCN1CC[C@]23c4c5ccc(O)c4O[C@H]2C(=O)CC[C@@]3(O)[C@H]1C5` [naloxone], in [10], the “Action potential duration (APD)” value is reported as “marked shortening of the action potential duration (APD)”. The “Reversal of oxycodone/morphine antinociception by naloxone” value with Sprague-Dawley rats [6] (rat, in vivo) is on record as “completely reversible; also recorded: completely attenuated”.
`O=C1CC[C@@]2(O)[C@H]3Cc4ccc(O)c5c4[C@@]2(CCN3CC2CC2)[C@H]1O5` [naltrexone]: the “Action potential duration (APD)” value in series [10] was “marked shortening of the action potential duration (APD)”.
For the compound `Oc1ccc2c3c1O[C@H]1c4[nH]c5ccccc5c4C[C@@]4(O)[C@@H](C2)N(CC2CC2)CC[C@]314` [naltrindole], in the series on Sprague-Dawley rats [8] (rat, in vivo), the “%MPE values versus pre-dosing baseline” value is recorded as “not significantly different (p>0.05) from pre-dosing baseline values”, the “Effect on DPDPE antinociception” value is reported as “significantly attenuated (p<0.05); also recorded: completely attenuated” and the “Effect on oxycodone antinociception” value is “did not significantly attenuate (p>0.05); also recorded: failed to attenuate”. For the same compound, the “Selectivity for δ- relative to μ-opioid receptors” value in series [11] is 100 fold. The “Selectivity for δ- relative to κ-opioid receptors” value in series [12] is on record as 10,000 fold.
Turning to `Oc1ccc2c3c1O[C@H]1c4[nH]c5c(c4C[C@@]4(O)[C@@H](C2)N(CC2CC2)CC[C@]314)C[C@@]1(O)[C@H]2Cc3ccc(O)c4c3[C@@]1(CCN2CC1CC1)[C@H]5O4` [nor-BNI, nor-binaltorphimine], in [7] (nor-BNI), the “Effect on U69,593 antinociception” value is given as “antagonize the antinociceptive effects” and the “Effect on bremazocine antinociception” value was “antagonize the antinociceptive effects”. In addition, in the series with Sprague-Dawley rats [8] (rat, in vivo), the “Effect on U69,593 antinociception” value is “complete attenuation of the antinociceptive effects; also recorded: markedly attenuated”, the “Effect on bremazocine antinociception” value was “complete attenuation of the antinociceptive effects; also recorded: markedly attenuated”, the “Effect on morphine antinociception” value is “not attenuated; also recorded: no effect; also recorded: did not attenuate” and the “Effect on oxycodone antinociception” value is “complete attenuation of the antinociceptive effects; also recorded: markedly attenuated; also recorded: completely attenuated; also recorded: completely attentuated; also recorded: attenuated only by nor-BNI”. In addition, the Ki at κ2a-2 opioid receptor is 5.9 nM.
With `COc1ccc2c3c1O[C@H]1C(=O)CC[C@@]4(O)[C@@H](C2)N(C)CC[C@]314` [oxycodone], in the series with Dark Agouti rats [1], the ED50 oxycodone dose is recorded as 0.44 (±0.04) mg, the “Time of onset of antinociception (%MPE≥30%)” value is reported as 12 min and the “Time to maximum antinociception (Tmax)” value stood at 20 min. The same compound returned a Duration of antinociception in the series on Sprague-Dawley rats [2] (i.c.v. equipotent doses administered separately) of 90 min. Also, the Antinociception entry in the series with Sprague-Dawley rats [2] (i.c.v. oxycodone 40 nmol alone) is “no antinociception was observed; also recorded: most of the %MPE values were negative”. Besides, the “Antinociception (% MPE)” value in the series on Dark Agouti rats [3] (i.p. oxycodone 571 nmol alone) was at most 50 % MPE. Besides, the “Dose used for intubation” value in the series on surgical patients [4] is listed as “approximately 10 mg”. Further, in the series with Sprague-Dawley rats [8] (i.c.v. oxycodone 200 nmol), the “Time of peak antinociception” value was found to be 5 min and the “Time to return to baseline values” is reported as at most 90 min. Further, the “Antinociception peak (% MPE)” value with Sprague-Dawley rats [8] (i.c.v. oxycodone 200 nmol, 5 min) was found to be 100 % MPE. Also, in the series on Sprague-Dawley rats [8] (oxycodone 200 nmol i.c.v. alone), the “Duration of action of oxycodone” value turned out to be 90 min. Also, the “Lower threshold initial dose producing analgesia” value in the series on humans (oral) is listed as 10 mg. Further, in the series with Dark Agouti rats [5], the “Failure of eye reflex test” value is reported as “approximately 40 % of the time”, the “Failure of righting reflex test” value was ~50 % of the time, the “Loss of landing reflex” value is “no loss of the landing reflex” and the “Loss of righting or landing reflexes” value was “no loss of the righting or landing reflexes”. The Sedation entry with Dark Agouti rats [5] is “markedly sedated compared with control rats”. Also, the “Reversal of oxycodone/morphine antinociception by naloxone” value in the series on Sprague-Dawley rats [6] (i.c.v. naloxone (55 nmol)) is listed as “naloxone-reversible antinociceptlon”. The “Time by which antinociception is essentially complete” value with Sprague-Dawley rats [6] (i.c.v. oxycodone, post-dosing) is reported as at most 90 min. Further, in the series on Sprague-Dawley rats [6], the ED50 was 78 nmol and the “Time to maximum antinociception” value is at most 7 min. Also, the “Time to maximum antinociception” value with Sprague-Dawley rats [6] (listed as Oxycodone) was 5 to 7 min. In addition, the Catatonic behaviour result in the series with rats is “catatonic behaviour observed”. Also, in the series on Sprague-Dawley rats [9] (i.c.v. oxycodone 200 nmol), the Catatonic behaviour result is on record as “nor did they exhibit the catatonic behaviour”. For the same compound, the “Spontaneous bladder emptying or incontinence” value with Sprague-Dawley rats [9] (i.c.v., oxycodone 200 nmol, morphine 78 nmol) is reported as “did not exhibit any signs of spontaneous bladder emptying or incontinence”. Moreover, in the series with Dark Agouti rats [13], the Antinociception result was “achieved maximum antinociception”. For the same compound, the “Onset of clinical effect” value with surgical patients [14] is around 5 min.

One may read the Ki as the dissociation constant of the complex between target and ligand, obtained from inhibition or displacement.

(Values after patent US6310072A (priority 1995, dated 2001).)
